Results taken from patent publication US7790761B2, “Blockade of voltage dependent sodium channels” (University College London, priority 2000, dated 2010).

System: sodium channels
Test: [14C]-labelled guanidine flux through sodium channels
Format: biochemical, rat
Conditions: inhibition of flux of [14C]-labelled guanidine through sodium channels

Compound	IC50
Cn1c(SCC(=O)C(C)(C)C)nnc1-c1cc(C(C)(C)C)nn1Cc1ccc(F)cc1 [1-{5-[5-tert-Butyl-2-(4-fluoro-benzyl)-2H-pyrazol-3-yl]-4-methyl-4H-[1,2,4]triazol-3-ylsulfanyl}-3,3-dimethyl-butan-2-one]	13 µM
CC(C)(C)c1cc(C(=O)Nc2ccc(Cl)cc2)n(Cc2ccccc2)n1 [2-Benzyl-5-tert-butyl-2H-pyrazole-3-carboxylic acid (4-chloro-phenyl)-amide]	4.4 µM
CC(C)(C)c1cc(C(=O)NNC(=O)Nc2cccc(C(F)(F)F)c2)n(Cc2ccccc2)n1 [2-Benzyl-5-tert-butyl-2H-pyrazole-3-carboxylic arid N′-(3-trifluoromethylphenylcarbamoyl)hydrazide]	0.5 µM
CCn1nc(C)cc1-c1nnc(SCc2ccccc2)n1-c1ccccc1 [3-(Benzylthio)-5-(1-ethyl-3-methyl-1H-pyrazol-5-yl)-4-phenyl-4H-1,2,4-triazolehemihydrate]	20 µM
Cc1ccc(Cn2nc(C(=O)Nc3ccccc3)cc2C)cc1 [5-Methyl-1-(4-methyl-benzyl)-1H-pyrazole-3-carboxylic acid phenylamide]	23 µM
Cc1ccc(Cn2nc(C)cc2C(=O)Nc2cccc(C(F)(F)F)c2)cc1 [5-Methyl-2-(4-methyl-benzyl)-2H-pyrazole-3-carboxylic acid (3-trifluoromethyl-phenyl)-amide]	6 µM
CCOC(=O)CSc1nnc(-c2cc(C(C)(C)C)nn2Cc2cccc(C)c2)n1C1CCCCC1 [Ethyl 2-([5-[3-(tert-butyl)-1-(3-methylbenzyl)-1H-pyrazol-5-yl]-4-cyclohexyl-4H-1,2,4-triazol-3-yl]thio)acetate]	< 9 µM
CC(C)(C)c1cc(C(=O)NCc2ccccc2)n(Cc2ccccc2)n1 [Example 10, 2-Benzyl-5-tert-butyl-2H-pyrazole-3-carboxylic acid benzylamide]	7 µM
O=C(Nc1ccccc1)c1cc(-c2ccccc2)n(-c2ccc(Cl)cc2)n1 [Example 11, 1-(4-Chloro-phenyl)-5-phenyl-1H-pyrazole-3-carboxylic acid phenylamide]	18 µM
COc1ccc(NC(=O)c2cc(C(C)(C)C)nn2Cc2ccc(Cl)cc2Cl)cc1 [Example 12, 5-tert-Butyl-2-(2,4-dichloro-benzyl)-2H-pyrazole-3-carboxylic acid (4-methoxy-phenyl)-amide]	< 9 µM
CCn1nc(-c2cccs2)cc1C(=O)Nc1ccc(Cl)cc1 [Example 13, 2-Ethyl-5-thiophen-2-yl-2H-pyrazole-3-carboxylic acid (4-chloro-phenyl)-amide]	17 µM
CC(C)(C)c1cc(C(=O)NCCc2ccccc2)n(Cc2ccc(Cl)cc2Cl)n1 [Example 15, 5-tert-Butyl-2-(2,4-dichloro-benzyl)-2H-pyrazole-3-carboxylic acid phenethyl-amide]	10 µM
CCn1nc(-c2cccs2)cc1C(=O)NCCc1ccccc1 [Example 16, (S)-2-Ethyl-5-thiophen-2-yl-2H-pyrazole-3-carboxylic acid phenethyl-amide]	13 µM
CC(C)(C)c1ccc(NC(=O)c2cc(-c3ccccc3)n(-c3ccc(Cl)cc3)n2)cc1 [Example 20, 1-(4-Chloro-phenyl)-5-phenyl-1H-pyrazole-3-carboxylic acid (4-tert-butyl-phenyl)-amide]	20 µM
Cn1nc(C(C)(C)C)cc1C(=O)Nc1ccc(Cl)c(Cl)c1 [Example 23, 5-tert-Butyl-2-methyl-2H-pyrazole-3-carboxylic acid (3,4-dichloro-phenyl)-amide]	< 9 µM
CC(C)(C)c1cc(NC(=O)c2cc(-c3ccccc3)n(-c3ccc(Cl)cc3)n2)no1 [Example 30, 1-(4-Chloro-phenyl)-5-phenyl-1H-pyrazole-3-carboxylic acid (5-tert-butyl-isoxazol-3-yl)-amide]	15 µM
Cc1cc(C(=O)Nc2ccc(C(=O)Nc3ccccc3)cc2)n(C(C)(C)C)n1 [Example 31, 2-tert-Butyl-5-methyl-2H-pyrazole-3-carboxylic acid (4-phenylcarbamoyl-phenyl)-amide]	22 µM
CC(C)(C)c1cc(C(=O)Nc2cccc(C(=O)Nc3ccccc3)c2)n(Cc2ccccc2)n1 [Example 32, 2-Benzyl-5-tert-butyl-2H-pyrazole-3-carboxylic acid (3-phenylcarbamoyl-phenyl)-amide]	22 µM
CC(C)(C)c1cc(C(=O)Nc2ccc(Cl)nc2)n(Cc2ccccc2)n1 [Example 34, 2-Benzyl-5-tert-butyl-2H-pyrazole-3-carboxylic acid (6-chloro-pyridin-3-yl)-amide]	< 9 µM
CC(=O)Nc1ccc(NC(=O)c2cc(C)n(C(C)(C)C)n2)cc1 [Example 36, 1-tert-Butyl-5-methyl-1H-pyrazole-3-carboxylic acid (4-acetylamino-phenyl)-amide]	23 µM
CC(=O)Nc1ccc(NC(=O)c2cc(C)n(Cc3ccc(C)cc3)n2)cc1 [Example 38, 5-Methyl-1-(4-methyl-benzyl)-1H-pyrazole-3-carboxylic acid (4-acetylamino-phenyl)-amide]	14 µM
CCn1nc(-c2cccs2)cc1C(=O)Nc1ccc(NC(C)=O)cc1 [Example 40, 2-Ethyl-5-thiophen-2-yl-2H-pyrazole-3-carboxylic acid (4-acetylamino-phenyl)-amide]	< 9 µM

The next lines start with the values.

IC50	Compound
< 9 µM	5-[3-tert-Butyl-1-(2,4-dichlorobenzyl)pyrazol-5-yl]-4-methyltriazole-3-thiol
3 µM	CC(C)(C)c1cc(C(=O)Nc2ccc(Br)c(Cl)c2)n(Cc2ccccc2)n1 [2-Benzyl-5-tert-butyl-2H-pyrazole-3-carboxylic acid (4-bromo-3-chloro-phenyl)-amide]
18 µM	C#CCSc1nnc(-c2cc(C(C)(C)C)nn2Cc2ccc(Cl)cc2Cl)n1-c1ccccc1 [3-[3-(tert-Butyl)-1-(2,4-dichlorobenzyl)-1H-pyrazol-5-yl]-4-phenyl-5-(prop-2-ynylthio)-4H-1,2,4-tziazole]
< 9 µM	Cc1cccc(Cn2nc(C(C)(C)C)cc2-c2nnc(S)n2C2CCCCC2)c1 [5-[3-(tert-Butyl)-1-(3-methylbenzyl)pyrazol-5-yl]-4-cyclohexyl-1,2,4-triazole-3-thiol]
30.9 µM	O=C(NO)c1ccc(-c2nn(Cc3ccccc3)c3ccccc23)o1 [Example 6, 1-Benzyl-3-(5-hydroxylaminocarbonyl-2-furyl)-1H-indazole]
< 9 µM	CC(C)(C)c1cc(C(=O)Nc2ccccc2)n(Cc2ccccc2)n1 [Example 9, 2-Benzyl-5-tert-butyl-2H-pyrazole-3-carboxylic acid phenylamide]
29 µM	CC(C)(C)c1cc(C(=O)Nc2ccc(Cl)cc2)n(Cc2ccc(Cl)cc2Cl)n1 [Example 14, (S)-5-tert-Butyl-2-(2,4-dichloro-benzyl)-2H-pyrazole-3-carboxylic acid (4-chloro-phenyl)-amide]
10 µM	CC(C)(C)c1cc(C(=O)Nc2ccccc2)n(Cc2ccc(Cl)cc2Cl)n1 [Example 17, 5-tert-Butyl-2-(2,4-dichloro-benzyl)-2H-pyrazole-3-carboxylic acid phenylamide]
9 µM	CC(C)(C)c1cc(C(=O)NCc2ccccc2)n(Cc2ccc(Cl)cc2Cl)n1 [Example 18, 5-tert-Butyl-2-(2,4-dichloro-benzyl)-2H-pyrazole-3-carboxylic acid benzylamide]
5 µM	CN(C)c1ccc(NC(=O)c2cc(-c3ccccc3)n(-c3ccc(Cl)cc3)n2)cc1 [Example 19, 1-(4-Chloro-phenyl)-5-phenyl-1H-pyrazole-3-carboxylic acid (4-dimethylamino-phenyl)-amide]
< 9 µM	Cc1cc(C(=O)Nc2ccc(C(C)(C)C)cc2)n(C(C)(C)C)n1 [Example 21, 2-tert-Butyl-5-methyl-2H-pyrazole-3-carboxylic acid (4-tert-butyl-phenyl)-amide]
< 9 µM	Cc1cc(C(=O)Nc2ccc(Cl)c(Cl)c2)n(C(C)(C)C)n1 [Example 22, 2-tert-Butyl-5-methyl-2H-pyrazole-3-carboxylic acid (3,4-dichloro-phenyl)-amide]
< 9 µM	CC(C)(C)c1cc(C(=O)Nc2ccc(Cl)c(Cl)c2)n(Cc2ccccc2)n1 [Example 24, 2-Benzyl-5-tert-butyl-2H-pyrazole-3-carboxylic acid (3,4-dichloro-phenyl)-amide]
18 µM	CC(C)(C)c1ccc(NC(=O)c2cc(C(C)(C)C)nn2Cc2ccccc2)cc1 [Example 25, 2-Benzyl-5-tert-butyl-2H-pyrazole-3-carboxylic acid (4-tert-butyl-phenyl)-amide]
< 9 µM	CN(C)c1ccc(NC(=O)c2cc(C(C)(C)C)nn2Cc2ccccc2)cc1 [Example 27, 2-Benzyl-5-tert-butyl-2H-pyrazole-3-carboxylic acid (4-dimethylamino-phenyl)-amide]
< 9 µM	CC(C)(C)c1cc(C(=O)Nc2cccc(-c3cnco3)c2)n(Cc2ccccc2)n1 [Example 28, 2-Benzyl-5-tert-butyl-2H-pyrazole-3-carboxylic acid (3-oxazol-5-yl-phenyl)-amide]
9 µM	Cn1nc(C(C)(C)C)cc1C(=O)Nc1cccc(-c2cnco2)c1 [Example 29, 5-tert-Butyl-2-methyl-2H-pyrazole-3-carboxylic acid (3-oxazol-5-yl-phenyl)-amide]
22 µM	Cn1nc(C(C)(C)C)cc1C(=O)Nc1cccc(C(=O)Nc2ccccc2)c1 [Example 33, 5-tert-Butyl-2-methyl-2H-pyrazole-3-carboxylic acid (3-phenylcarbamoyl-phenyl)-amide]
5 µM	Cc1cc(C(=O)Nc2ccc(Cl)nc2)nn1C(C)(C)C [Example 35, 1-tert-Butyl-5-methyl-1H-pyrazole-3-carboxylic acid (6-chloro-pyridin-3-yl)-amide]
< 9 µM	Cc1cc(C(=O)Nc2ncccc2OCc2ccccc2)nn1C(C)(C)C [Example 37, 1-tert-Butyl-5-methyl-1H-pyrazole-3-carboxylic acid (3-benzyloxy-pyridin-2-yl)-amide]
24 µM	CC(=O)Nc1ccc(NC(=O)c2cc(C(C)(C)C)nn2Cc2ccc(Cl)cc2Cl)cc1 [Example 39, 5-tert-Butyl-2-(2,4-dichloro-benzyl)-2H-pyrazole-3-carboxylic acid (4-acetylamino-phenyl)-amide]
